# Measurements reported in patent publication US11766468B2, “Method of treating prostate cancer with GnRH antagonist” (priority 2012, dated 2023).
# Square brackets hold non-standard residues; d marks the D form. Peptide text beside a SMILES is read from it. * marks the point of attachment. dPhe(4-NHCONH2) = NC(=O)Nc1ccc(C[C@@H](N)C(=O)O)cc1; Dihydroorotyl(S) = O=C1C[C@@H](C(=O)*)NC(=O)N1; dPhe(4-Cl) = N[C@H](Cc1ccc(Cl)cc1)C(=O)O; Phe(4-NH2) = Nc1ccc(C[C@H](N)C(=O)O)cc1; d2Nal = N[C@H](Cc1ccc2ccccc2c1)C(=O)O; Lys(iPr) = CC(C)NCCCC[C@H](N)C(=O)O; d3Pal = N[C@H](Cc1cccnc1)C(=O)O
# Test: CS21 safety: treatment-emergent adverse events (MedDRA SOC/PT), crude incidence, also by subgroup
# Assay type: in vivo
# Description: The safety variables for this study were assessed on the following: the frequency and severity of adverse events (AEs); the presence of clinically significant changes in laboratory parameters (clinical chemistry, hematology and urinalysis); changes in electrocardiograms (ECGs) and vital signs; changes detected by physical examination; and body weight.
# An AE was therefore any unfavorable or unintended sign (including an abnormal laboratory finding), symptom or disease temporally associated with the use of the product, whether or not related to the IMP.
# An adverse drug reaction (ADR) was defined as an AE evaluated by the investigator as being probably or possibly related to treatment with the IMP.
# AEs were graded according to the National Cancer Institute (NCI) Common Terminology Criteria for Adverse Events (CTCAE). In accordance with the CTCAE criteria, AEs were rated on a five-point scale corresponding to mild, moderate, severe, life-threatening or disabling and death. For those AEs not described in the CTCAE, a separate five-point rating scale was used for rating of the intensity of AEs as follows below:
# Safety parameters were evaluated for all patients included in the ITT analysis set, comprising all 610 randomized patients who received at least one dose of study medication. All safety tables include four columns: the three treatment groups described separately, and the pooled degarelix group.
# Adverse events were regarded as ‘treatment-emergent’ if they occurred in the time interval from initial dosing to end-of-study. Adverse events were considered ‘pre-treatment’ if they occurred between screening and the initial injections of IMP. As described above, all AEs were classified according to MedDRA (version 10.0) system organ class (SOC), sorted alphabetically, and by preferred term (PT), in decreasing frequency of occurrence. Treatment-emergent AEs were expressed in terms of intensity (using NCI CTCAE) and relationship to study drug.
# Using the results from the summary of clinical efficacy (SCE) and summary of clinical safety (SCS) findings, different patient subgroups were analyzed. Subgroup distinguishers included race (white, black, and other), age (<65 years, […], and >75 years), weight (<70 kg, ≥70−<90 kg, and ≥90 kg), body mass index (BMI) (≤20, >20 to 30, and >30 kg/m^2)), region (North-America, Western Europe, Central and Eastern Europe and Other), and stage of prostate cancer (e.g., localized, locally advanced, and metastatic).
# [1] = degarelix 240/160 mg, listed as degarelix
# [2] = degarelix Total (pooled), leuprolide 7.5 mg
smiles,measurement,setting,value
"CC(=O)N[C@H](Cc1ccc2ccccc2c1)C(=O)N[C@H](Cc1ccc(Cl)cc1)C(=O)N[C@H](Cc1cccnc1)C(=O)N[C@@H](CO)C(=O)N[C@@H](Cc1ccc(NC(=O)[C@@H]2CC(=O)NC(=O)N2)cc1)C(=O)N[C@H](Cc1ccc(NC(N)=O)cc1)C(=O)N[C@@H](CC(C)C)C(=O)N[C@@H](CCCCNC(C)C)C(=O)N1CCC[C@H]1C(=O)N[C@H](C)C(N)=O [Degarelix, D-Alaninamide, N-acetyl-3-(2-naphthalenyl)-D-alanyl-4-chloro-D-phenylalanyl-3-(3-pyridinyl)-D-alanyl-L-seryl-4-[[[(4S)-hexahydro-2,6-dioxo-4-pyrimidinyl]carbonyl]amino]-L phenylalanyl-4-[(aminocarbonyl)amino]-D-phenylalanyl-L leucyl-N6-(1-methylethyl)-L-lysyl-L-prolyl] (Ac-[d2Nal][dPhe(4-Cl)][d3Pal]S[Phe(4-NH2)](Dihydroorotyl(S))[dPhe(4-NHCONH2)]L[Lys(iPr)]P[dA]-NH2)","AEs leading to discontinuation, % of patients",degarelix 240/160 mg,9%
same,"AEs leading to discontinuation, E events",degarelix 240/160 mg,19
same,"AEs leading to discontinuation, N patients",degarelix 240/160 mg,19
same,"Alanine aminotransferase increased, % of patients",degarelix 240/160 mg,( 8%)
same,"All AEs, E = number of adverse events",degarelix 240/160 mg,941
same,"All AEs, N = number of patients",degarelix 240/160 mg,167
same,"Arthralgia, % of patients",degarelix 240/160 mg,( 3%)
same,"Aspartate aminotransferase increased, % of patients",degarelix 240/160 mg,( 5%)
same,"Back pain, % of patients",degarelix 240/160 mg,( 6%)
same,"Blood & lymphatic system disorders, % of patients",degarelix 240/160 mg,( 5%)
same,"Cardiac disorders, % of patients",degarelix 240/160 mg,( 9%)
same,"Chills, % of patients",degarelix 240/160 mg,( 3%)
same,"Constipation, % of patients",degarelix 240/160 mg,( 3%)
same,"Deaths (Grade 5), % of patients",degarelix 240/160 mg,2%
same,"Deaths (Grade 5), E events",degarelix 240/160 mg,6
same,"Deaths (Grade 5), N patients",degarelix 240/160 mg,5
same,"Ear & labyrinth disorders, % of patients",degarelix 240/160 mg,( 1%)
same,"Endocrine disorders, % of patients",degarelix 240/160 mg,(<1%)
same,"Eye disorders, % of patients",degarelix 240/160 mg,( 2%)
same,"Fatigue, % of patients",degarelix 240/160 mg,( 6%)
same,"Gastrointestinal disorders, % of patients",degarelix 240/160 mg,(16%)
same,"General disorders & administration site conditions, % of patients",degarelix 240/160 mg,(50%)
same,"Hepatobiliary disorders, % of patients",degarelix 240/160 mg,(<1%)
same,"Hot flush, % of patients",degarelix 240/160 mg,(26%)
same,"Hypercholesterolaemia, % of patients",degarelix 240/160 mg,( 6%)
same,"Hypertension, % of patients",degarelix 240/160 mg,( 7%)
same,"Immune system disorders, % of patients",degarelix 240/160 mg,(<1%)
same,"Infections & infestations, % of patients",degarelix 240/160 mg,(19%)
same,"Injection site erythema, % of patients",degarelix 240/160 mg,(24%)
same,"Injection site induration, % of patients",degarelix 240/160 mg,( 5%)
same,"Injection site nodule, % of patients",degarelix 240/160 mg,( 6%)
same,"Injection site pain, % of patients",degarelix 240/160 mg,(30%)
same,"Injection site swelling, % of patients",degarelix 240/160 mg,( 7%)
same,"Injury, poisoning & procedural complications, % of patients",degarelix 240/160 mg,( 5%)
same,"Investigations, % of patients",degarelix 240/160 mg,(29%)
same,"Metabolism & nutrition disorders, % of patients",degarelix 240/160 mg,(13%)
same,"Musculoskeletal & connective tissue disorders, % of patients",degarelix 240/160 mg,(18%)
same,"Nausea, % of patients",degarelix 240/160 mg,( 5%)
same,"Neoplasms benign, malignant & unspecified, % of patients",degarelix 240/160 mg,( 6%)
same,"Nervous system disorders, % of patients",degarelix 240/160 mg,(13%)
same,"Psychiatric disorders, % of patients",degarelix 240/160 mg,( 8%)
same,"Renal & urinary disorders, % of patients",degarelix 240/160 mg,(13%)
same,"Reproductive system & breast disorders, % of patients",degarelix 240/160 mg,( 6%)
same,"Respiratory, thoracic & mediastinal disorders, % of patients",degarelix 240/160 mg,( 8%)
same,"Serious AEs, % of patients",degarelix 240/160 mg,12%
same,"Serious AEs, E events",degarelix 240/160 mg,41
same,"Serious AEs, N patients",degarelix 240/160 mg,24
same,"Skin & subcutaneous tissue disorders, % of patients",degarelix 240/160 mg,(10%)
same,"Surgical & medical procedures, % of patients",degarelix 240/160 mg,(<1%)
same,"Urinary tract infection, % of patients",degarelix 240/160 mg,( 1%)
same,"Vascular disorders, % of patients",degarelix 240/160 mg,(32%)
same,"Weight increased, % of patients",degarelix 240/160 mg,(11%)
same,"Hot flush, % of patients",[1],26%
same,"Treatment-emergent adverse events (all AEs), % of patients",[1],83%
same,"Injection site erythema, % of patients",degarelix Total (pooled),(21%)
same,"Injection site induration, % of patients",degarelix Total (pooled),( 5%)
same,"Injection site nodule, % of patients",degarelix Total (pooled),( 5%)
same,"Injection site swelling, % of patients",degarelix Total (pooled),( 7%)
same,"Surgical & medical procedures, % of patients",degarelix Total (pooled),(<1%)
same,"ADRs, % of patients",[2],58%
same,"ADRs, E events",[2],922
same,"ADRs, N patients",[2],238
same,"AEs leading to discontinuation, % of patients",[2],8%
same,"AEs leading to discontinuation, E events",[2],34
same,"AEs leading to discontinuation, N patients",[2],34
same,"Alanine aminotransferase increased, % of patients",[2],( 9%)
same,"All AEs, E = number of adverse events",[2],1878
same,"All AEs, N = number of patients",[2],330
same,"Aspartate aminotransferase increased, % of patients",[2],( 5%)
same,"Back pain, % of patients",[2],( 6%)
same,"Cardiac disorders, % of patients",[2],( 9%)
same,"Chills, % of patients",[2],( 4%)
same,"Constipation, % of patients",[2],( 4%)
same,"Deaths (Grade 5), % of patients",[2],2%
same,"Deaths (Grade 5), E events",[2],11
same,"Deaths (Grade 5), N patients",[2],10
